Assay results: paper PMC7059199, “Identification and structural insight of an effective PPARγ modulator with improved therapeutic index for anti-diabetic drug discovery” (Chemical Science, 2020)

Columns and labels:
[1] = Pharmacokinetic profile in mice; format: in vivo
Procedure: VSP-77 was further evaluated for its preliminary pharmacokinetic profile in mice following oral (10 mg kg^–1) and intravenous (5 mg kg^–1) administration (Table S2 ^†).

[2] = molecular target: T1, PPARδ (Homo sapiens, UniProt Q03181); assay: Competitive TR-FRET assay, PPARδ; conditions: even at 100 μM
T1 sequence (Q03181 1-441): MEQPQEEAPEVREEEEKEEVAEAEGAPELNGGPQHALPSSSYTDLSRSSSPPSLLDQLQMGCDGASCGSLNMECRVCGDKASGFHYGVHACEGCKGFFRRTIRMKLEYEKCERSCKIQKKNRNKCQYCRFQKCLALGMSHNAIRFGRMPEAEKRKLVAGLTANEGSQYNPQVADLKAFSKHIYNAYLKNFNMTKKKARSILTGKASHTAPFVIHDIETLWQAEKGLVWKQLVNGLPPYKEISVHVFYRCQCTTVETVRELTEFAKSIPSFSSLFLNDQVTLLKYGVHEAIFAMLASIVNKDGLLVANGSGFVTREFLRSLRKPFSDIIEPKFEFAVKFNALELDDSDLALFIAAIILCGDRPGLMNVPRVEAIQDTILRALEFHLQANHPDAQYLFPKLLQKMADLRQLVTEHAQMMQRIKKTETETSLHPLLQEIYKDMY

[3] = mouse, in vivo, intravenous 5 mg/kg
[4] = mouse, in vivo, oral (ig) 10 mg/kg
[5] = oral 10 mg/kg, unit as printed in main text

An AUC(0-inf) [1, 3] of 5030 ng·h/mL, an AUC(0-t) [1, 3] of 5000 ng·h/mL and an MRT [1, 3] of 1.11 h were found for `CCCCCCCC(OCC(=O)O)c1ccc(Cl)cc1` (centres unmarked) [VSP-77] in this work. For the same compound, the half-life [1, 3] was 1.07 h, the AUC(0-inf) [1, 4] was 5880 ng·h/mL and the AUC(0-t) [1, 4] was 5770 ng·h/mL. For the same compound, the Cmax [1, 4] was 2920 ng/mL, the MRT [1, 4] was 1.94 h and the Tmax [1, 4] was 0.5 h. The half-life [1, 4] was 1.25 h, the bioavailability ([1]; mouse, in vivo, oral (ig) 10 mg/kg vs iv 5 mg/kg, read-out: F (oral bioavailability)) was 57.7% and the “AUC0–t” value [1, 5] was 5772 ng mL^–1 h^–1. For the same compound, the “AUC0–∞” value [1, 5] was 5877 ng mL^–1 h^–1 and the “effect on PPARδ (in words)” value [2] was “no obvious effects”.
